# Experimental data reported in ChEMBL document CHEMBL3045040, “Synthesis and antiproliferative activity of 1-[(sub)]-6-fluoro-3-[(sub)]-1, 3,4-oxadiazol-2-yl-7-piperazino-1, 4-dihydro-4-quinolinone derivatives” (Med Chem Res, 2007).
# System: A549
# Experiment: Cytotoxicity against Homo sapiens (human) A549 cells assessed as cell viability by MTT assay
# Assay type: functional, cell-based
row,SMILES,IC50
1,O=c1c(-c2nnc(-c3ccccc3)o2)cn(C2CC2)c2cc(N3CCNCC3)c(F)cc12,46 µg/mL
2,O=c1c(-c2nnc(-c3ccc([N+](=O)[O-])cc3)o2)cn(C2CC2)c2cc(N3CCNCC3)c(F)cc12,8 µg/mL
3,O=c1c(-c2nnc(-c3ccc(Nc4ccccc4)cc3)o2)cn(C2CC2)c2cc(N3CCNCC3)c(F)cc12,52 µg/mL
4,O=c1c(-c2nnc(COc3ccc4ccccc4c3)o2)cn(C2CC2)c2cc(N3CCNCC3)c(F)cc12,16 µg/mL
5,O=c1c(-c2nnc(COc3cccc4ccccc34)o2)cn(C2CC2)c2cc(N3CCNCC3)c(F)cc12,96.2 µg/mL
6,O=c1c(-c2nnc(Cc3ccccc3)o2)cn(C2CC2)c2cc(N3CCNCC3)c(F)cc12,86 µg/mL
7,O=c1c(-c2nnc(COc3ccccc3)o2)cn(C2CC2)c2cc(N3CCNCC3)c(F)cc12,48.6 µg/mL
8,CCn1cc(-c2nnc(-c3ccccc3)o2)c(=O)c2cc(F)c(N3CCNCC3)cc21,112 µg/mL
9,CCn1cc(-c2nnc(-c3ccc([N+](=O)[O-])cc3)o2)c(=O)c2cc(F)c(N3CCNCC3)cc21,74.3 µg/mL
10,CCn1cc(-c2nnc(-c3ccc(Nc4ccccc4)cc3)o2)c(=O)c2cc(F)c(N3CCNCC3)cc21,88.6 µg/mL
11,CCn1cc(-c2nnc(COc3ccc4ccccc4c3)o2)c(=O)c2cc(F)c(N3CCNCC3)cc21,80.2 µg/mL
12,CCn1cc(-c2nnc(COc3cccc4ccccc34)o2)c(=O)c2cc(F)c(N3CCNCC3)cc21,127 µg/mL
13,CCn1cc(-c2nnc(Cc3ccccc3)o2)c(=O)c2cc(F)c(N3CCNCC3)cc21,118 µg/mL
14,CCn1cc(-c2nnc(COc3ccccc3)o2)c(=O)c2cc(F)c(N3CCNCC3)cc21,76.8 µg/mL
15,CN(C)/N=N/c1[nH]cnc1C(N)=O [DACARBAZINE],35 µg/mL
